Values joined by “and” are separate entries in the source; they are usually repeats but may differ in a detail not shown here. Equal values may be shown once.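 Growth conditions: 96-well plates. Treatment: test compound, 48 hours, 5 concentrations. Analysis: linear interpolation between bracketing concentrations; unreached endpoints set to highest concentration. GI50 = concentration required for 50% inhibition of growth. TGI marks complete inhibition of growth.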

Among the test systems are UO-31 renal; PC-3 prostate; SR leukemia; A498 renal; A549 NSCLC; MALME-3M melanoma; RPMI-8226 leukemia; SW-620 colon; ACHN renal; HCC-2998 colon.
Holding throughout (assay): NCI tumour cell line growth inhibition, 48 h

For the molecule `O=C1NC(N/N=C\C(O)C(O)C(O)CO)=N/C1=C/c1ccccc1` (stereo not drawn), the TGI in the assay on UO-31 renal, with PC-3 prostate, in the assay with SR leukemia, in the assay on A498 renal, in the assay on A549 NSCLC and in the assay on MALME-3M melanoma was > 100 µM in each case. In addition, the TGI with RPMI-8226 leukemia, in the assay with SW-620 colon, in the assay on ACHN renal and in the assay with HCC-2998 colon was > 100 µM each time. For the same molecule, the GI50 with PC-3 prostate is > 100 µM and 48.9 µM; in the assay with SR leukemia, > 100 µM and 44.1 µM; in the assay with A498 renal, > 100 µM and 39.3 µM; in the assay on RPMI-8226 leukemia, > 100 µM and 33.7 µM; in the assay on SW-620 colon, > 100 µM and 34 µM.
Turning to `O=C(Cn1c(=O)oc2ccc(C(=O)c3ccc(F)cc3)cc21)c1ccc([N+](=O)[O-])cc1`, the TGI with UO-31 renal was 84.4 µM; in the assay with PC-3 prostate it was 85.9 µM; in the assay with SR leukemia, > 100 µM; in the assay with A498 renal, > 100 µM; with A549 NSCLC, > 100 µM; with MALME-3M melanoma, > 100 µM. Besides, the TGI with RPMI-8226 leukemia was > 100 µM; with SW-620 colon, > 100 µM; in the assay with ACHN renal it was > 100 µM; in the assay with HCC-2998 colon, 37.9 µM.
Regarding `Cn1cnc([N+](=O)[O-])c1Sc1nc2cc(Cl)c(F)cc2[nH]1`, the TGI turned out to be 27.6 µM in the assay with UO-31 renal; 12.4 µM in the assay on SR leukemia; 51 µM in the assay on A498 renal; 54.3 µM with A549 NSCLC; 27.5 µM in the assay with MALME-3M melanoma; 40.3 µM in the assay with RPMI-8226 leukemia. Further, the TGI is 22.4 µM with SW-620 colon, 34.1 µM in the assay with ACHN renal and 20.7 µM with HCC-2998 colon.
Consider `COc1cccc2c1OC1c3ccccc3OCC1C2` (stereo not drawn), for which the TGI with UO-31 renal, with PC-3 prostate, in the assay on SR leukemia, in the assay on A498 renal, in the assay with A549 NSCLC and in the assay with MALME-3M melanoma was > 100 µM each time. Also, the TGI in the assay with RPMI-8226 leukemia, with SW-620 colon and in the assay on HCC-2998 colon was > 100 µM each time.
As to `OCC1OC(c2scc3c(=S)nc[nH]c23)C(O)C1O` (stereo not drawn), the TGI in the assay with UO-31 renal is > 100 µM; in the assay on PC-3 prostate it was > 84.9 µM; in the assay with SR leukemia it was > 100 µM; in the assay on A498 renal, > 54.1 µM; in the assay with A549 NSCLC, > 100 µM; in the assay with MALME-3M melanoma it was > 72.9 µM. In addition, the TGI was 58 µM in the assay with RPMI-8226 leukemia, > 93.1 µM in the assay with SW-620 colon, > 67.8 µM in the assay on ACHN renal and > 97.2 µM with HCC-2998 colon.
As for `C=CCC1(O)c2ccccc2C(=O)c2c(O)ccc(O)c21` (stereo not drawn), the TGI with UO-31 renal is 52.6 µM; with PC-3 prostate, 35.5 µM; in the assay with SR leukemia, > 69.8 µM; in the assay on A498 renal, 25.8 µM; with A549 NSCLC, > 87.3 µM; with MALME-3M melanoma, 28.8 µM. The TGI in the assay on RPMI-8226 leukemia is > 100 µM; in the assay on SW-620 colon, > 100 µM; in the assay with ACHN renal it was 46.3 µM; with HCC-2998 colon, 15 µM.
In the case of `O=C1c2c(F)c(F)c(F)c(F)c2SC2=NCCN12`, the TGI was 22.5 µM in the assay with UO-31 renal; 27.2 µM in the assay with PC-3 prostate; 4.45 µM in the assay with SR leukemia; 32.9 µM in the assay with A498 renal; 30.1 µM with A549 NSCLC; 12.8 µM in the assay on MALME-3M melanoma. For the same molecule, the TGI in the assay with RPMI-8226 leukemia was 24.8 µM; in the assay with SW-620 colon, 6.29 µM; in the assay on ACHN renal, 21.1 µM; with HCC-2998 colon, 28 µM.
As for `CCOC(=O)c1cn(-c2ccccc2)c(=S)n2c1nc1ccccc12`, the TGI was > 90 µM in the assay with PC-3 prostate; 84.6 µM in the assay with SR leukemia; > 100 µM in the assay with A498 renal; > 100 µM in the assay with A549 NSCLC; > 100 µM with RPMI-8226 leukemia; > 100 µM with SW-620 colon. In addition, the values for the TGI with ACHN renal and in the assay on HCC-2998 colon were > 100 µM and 96.9 µM, respectively.
As to `O=S(=O)(Oc1ccc2oc3ccccc3c2c1-c1c(OS(=O)(=O)C(F)(F)F)ccc2oc3ccccc3c12)C(F)(F)F`, the TGI with UO-31 renal, in the assay on PC-3 prostate, in the assay with SR leukemia, with A498 renal, with A549 NSCLC and with RPMI-8226 leukemia was > 100 µM in each case. The TGI in the assay on SW-620 colon, in the assay with ACHN renal and in the assay with HCC-2998 colon was > 100 µM throughout.
As to `CC[C@@]1(O)C(=O)OCc2c1cc1n(c2=O)Cc2c-1nc1ccccc1c2/C=N\NC(=O)C(N)CC(C)C` (stereo partly drawn), the TGI was 0.201 µM in the assay with UO-31 renal; > 100 µM in the assay on PC-3 prostate; < 0.0109 µM with SR leukemia; 0.263 µM in the assay on A498 renal; 2.16 µM with A549 NSCLC; 7.31 µM in the assay with MALME-3M melanoma. The TGI in the assay on RPMI-8226 leukemia was 3.71 µM; in the assay with SW-620 colon it was > 40.2 µM; in the assay on HCC-2998 colon, 6.17 µM.
As for `COc1cc(/C=C/C(=O)OCC23CC[C@@]4(C(=O)O)CCC(C)[C@H](C)C4C2=CCC2[C@@]4(C)CC[C@H](O)C(C)(C)C4CC[C@]23C)ccc1O` (stereo partly drawn), the TGI in the assay with PC-3 prostate was 41.5 µM; in the assay with SR leukemia, 61.3 µM; in the assay on A498 renal, 68.5 µM; in the assay with A549 NSCLC, 22.6 µM; in the assay on MALME-3M melanoma, 27.5 µM; in the assay with SW-620 colon, > 100 µM. Moreover, the TGI in the assay on ACHN renal was 8.24 µM; with HCC-2998 colon, > 100 µM.
Consider `C[N+]1(C)CCCC1C(=O)[O-]` (stereo not drawn), for which the TGI in the assay on UO-31 renal, in the assay on SR leukemia, in the assay on A498 renal, in the assay on A549 NSCLC, with MALME-3M melanoma and in the assay on RPMI-8226 leukemia was > 100 µM each time. Also, the TGI in the assay with SW-620 colon, with ACHN renal and in the assay on HCC-2998 colon was > 100 µM each time.
For the molecule `c1ccc(C2=NC3(CCCCC3)N(c3nc4ccccc4s3)N2)nc1`, the TGI in the assay on UO-31 renal is > 100 µM; with PC-3 prostate, 46.9 µM; with SR leukemia, 26.8 µM; in the assay with A498 renal it was > 100 µM; with A549 NSCLC it was > 100 µM; with MALME-3M melanoma, > 100 µM. Also, the TGI with RPMI-8226 leukemia is 52.8 µM; with SW-620 colon, > 100 µM; in the assay on ACHN renal it was > 100 µM.
`Cc1ccc(C2CC(=O)CC(c3ccc(C)cc3)C23C(=O)NC(=O)NC3=O)cc1` (stereo not drawn): the TGI with UO-31 renal, with PC-3 prostate, with SR leukemia, in the assay with MALME-3M melanoma, in the assay on RPMI-8226 leukemia and in the assay with SW-620 colon was > 100 µM throughout. In addition, the TGI in the assay on ACHN renal and in the assay on HCC-2998 colon was > 100 µM in each case.

(Values after PubChem BioAssay (NCI).)
